Data: patent publication US10806798B2, “Compound with effects of thrombolysis, free radical scavenging and thrombus-targeting” (Shanghai Lumosa Therapeutics Co., Ltd., priority 2012, dated 2020)
Marks after values point to notes of the source that are not given here.

Experiments:
[1] = system: NO free radicals (acetylcholine induced vasodilation); assay: NO radical scavenging: inhibition of acetylcholine induced vasodilation of aorta rings; set-up: species or system Wistar rats; conditions: final concentration 5×10^−6 M; n = 6
Procedure: Male Wistar rats weighing 250 to 300 g were starved for 12 h before operation with free access to drinking water, and sacrificed by cervical dislocation. Thoracotomy was immediately carried out and thoracic aorta was taken out, connective tissues attached thereto were dissected, and vessels were cut into aorta rings with a length of 3 to 5 mm and placed into a perfusion bath. The bath contained 15 ml Krebs-Henseleit solution and was kept at a constant temperature of 37° C., into which 95% O2-5% CO2 gas was charged. The anchor to which the aorta rings were immobilized was connected to a tension transducer, and vasomotion curves were recorded on a dual-trace recorder at a paper speed of 1 mm/min. With the static tension adjusted to 1.0 g and 30 min of equilibration, norepinephrine at a final concentration of 10^−8 M was dosed to allow the aorta to contract for preexcitation. Norepinephrine was washed off, followed by 30 min of equilibration, and norepinephrine was added into the bath to a final concentration of 10^−8 M. When the contraction tension was steady at a plateau level, 20 μl normal saline (blank), a 20 μl solution of any one of compounds Ia to Il in normal saline (at a final concentration of 5×10^−6 M), or a 20 μl solution of NO free radical scavenger (1,3-dioxo-2-(4′-oxyacetoxyl-phenyl)-4,4,5,5-tetramethylimidazoline, TMMZ) in normal saline (at a final concentration of 5×10^−6 M) was added into the bath. When stabilized, a 20 μl acetylcholine in normal saline was added (at a final concentration of 10^−6 M). The NO scavenging ability of the drugs was expressed as a percentage of inhibition of acetylcholine induced vasodilation.

rats with stroke [2] = assay: Immediate treatment after stroke onset, neural function scores (Zealonga method, 0 no loss to 5 death); format: in vivo, SD rats; conditions: 1 μmol/kg, 24 h after awake
Procedure: The in vivo anti-stroke activity of the present invention was represented by neural function scores, with a lower score indicating higher activity. A 10% chloral hydrate solution (400 mg/kg) was injected intraperitoneally into SD male rats (250-300 g) for anesthesia. An open incision of 2 cm in length was longitudinally made slightly on the right to the center of the neck, and the right common carotid artery trunk, carotid external artery and carotid internal artery were dissected along the margin of the inner side of sternocleidomastoid muscles. The open incisions in the carotid internal artery and the proximal end of the common carotid artery were occluded respectively with noninvasive arterial clips. A small open incision was made across the carotid external artery, and the distal end of the carotid external artery was ligated. The arterial clip at the proximal end of the carotid external artery was released, and 10 μl blood was drawn before the proximal end of the common carotid artery was again occluded with the noninvasive arterial clip. The 10 μl blood drawn was placed in a 1 mL EP vial and kept at RT for 30 min for coagulation of blood, and then transferred into a −20° C. refrigerator for 1 h to allow coagulation. After 1 h, the blood clots were taken out, into which 1 mL saline was added, and then broken into uniform microthrombus by using a steel spatula. The microthrombus suspension was then transferred to a 1 mL injector until use. At the same time when the clip on the carotid internal artery of the rat was released, 1 mL thrombus suspension in the injector was slowly injected from the carotid external artery of the rat to its proximal end, and the suspension was injected into the brain of the rat through the carotid internal artery. Subsequently, the proximal end of the carotid external artery was ligated, the arterial clips on the carotid internal artery and the common carotid artery were released, and blood flow was restored. The jugular common vein of the rats was dissected. The vein was immediately ligated, 3 drops of penicillin was dropped at the wound site, the wound was stitched up, and the animals were allowed to come around, as the sham operation group. Or injection of urokinase in normal saline (positive control group, at a dosage of 20000 IU/kg), normal saline (blank control group, at a dosage of 3 ml/kg), TMMZ in normal saline (component control group, at a dosage of 1 μmol/kg), a thrombolytic peptide ARPAK (SEQ. ID NO. 4), GRPAK (SEQ. ID NO. 5), RPAK (SEQ. ID NO. 3) or PAK in normal saline (component control group, at a dosage of 1 μmol/kg), or one of compounds Ia-Il in normal saline (at a dosage of 0.1 μmol/kg) was carried out. 24 h after the rats were awake, the degree of damage in the neural function was evaluated by the Zealonga method. A score of 0 indicated no sign of loss in neural function, 1 indicated the front limbs on the undamaged side could not stretch out, 2 indicated walking toward the undamaged side, 3 indicated tail-chasing walking in circles toward the undamaged side, 4 indicated involuntary walking with disturbance of consciousness, and 5 indicated death.

rats with stroke [3] = assay: Cerebral infarction volume after immediate treatment of stroke (TTC staining); format: in vivo, SD rats; conditions: 1 μmol/kg; immediate treatment; n = 10
Procedure: After the rats were awake for 24 h and assessed for their degree of damage in neural function in Experimental example 6, they were anesthesized with urethane followed by immediate decapitation and removal of the brain. Brain tissues were kept in a −20° C. refrigerator for 2 h, and coronal sections of about 2 mm were successively sliced from the prefrontal end for a total of 6 sections, and then placed into a 2% TTC solution to incubate in darkness at 37° C. for 30 min. The color change in brain sections was observed: normal brain tissues were stained red by TTC, while ischemic brain tissues, i.e., brain tissues with infracts, appeared in a white color. Photographs were taken by using a digital camera and processed with SPSS statistics software, and the volume of infarction in brain tissues and the volume of normal brain tissues in the coronal sections were calculated.

thrombus [4] = assay: In vivo anti-thrombus experiment (arteriovenous cannula with thread); set-up: species or system SD rats; conditions: n = 11
Procedure: SD rats (male, 220 to 230 g) were randomly divided into groups with 11 rats in each group. The rats were fed at a resting state for 1 day and fasted overnight. […] After 30 min, the rats were anesthetized with a 20% urethane solution, and the right carotid artery and the left carotid vein were dissected. A cannula was filled with sodium heparin in normal saline, and one end thereof was inserted into the left vein, while the other end was injected with a certain amount of sodium heparin for anticoagulation with an injector and then inserted into the right artery. Blood flew from the right artery to the left vein through the polyethylene tubing, and the thread attached with thrombus was taken out after 15 min and the weight thereof was recorded. The wet thrombus weight was determined by subtracting the thread weight from the total weight.

[5] = system: thrombus from rat arterial blood; assay: In vitro thrombolysis; set-up: species or system SD rats; conditions: 100 nM, 2 h at 37° C., n = 6
Procedure: SD rats (male, 350 to 400 g) were anaesthetized by intraperitoneal injection of a urethane solution at a dosage of 1200 mg/kg. The anaesthetized rats were fixed in a supine position, and the right common carotid artery was dissected, clamped at the proximal end with an arterial clip, and penetrated with a suture at the proximal and distal ends, respectively. The suture at the distal end is clipped tightly by a hemostatic clamp at the fur. Cannulation was performed at the distal end, the artery clamp was removed, and the total arterial blood was discharged into a 50 ml container previously treated with silicone oil. […] rat arterial blood was injected into a vertically fixed glass tube (20 mm in length, with an inner diameter of 4 mm and an outer diameter of 5 mm, sealed with a rubber stopper at the bottom), into which was immediately inserted a thrombus immobilization screw made of stainless steel. […] 40 min after the blood was coagulated, the rubber stopper at the bottom of the glass tube was removed, the stem of the thrombus immobilization screw was nipped by forceps, and the thrombus-wrapped thrombus immobilization screw was carefully taken out from the glass tube. The screw was then suspended and dipped in triple-distilled water to remove excessive blood, and accurately weighed after 1 h. The thrombus was suspended in 8 mL of normal saline, or a solution of compounds Ia-Il in normal saline (at a concentration of 100 nM), or a solution of ARPAK (SEQ. ID NO. 4), GRPAK (SEQ. ID NO. 5), RPAK (SEQ. ID NO. 3) or PAK in normal saline (at a concentration of 100 nM), or a solution of urokinase in normal saline (100 IU/mL), then shaked at 37° C. in a thermostatic shaker (63 r/min), and removed after 2 h and accurately weighed to determine the weight of the thrombus.

thrombus [6] = assay: In vivo thrombolysis, rat arteriovenous bypass thrombolysis model; set-up: species or system SD rats; conditions: 1 μmol/kg, after 1 h, n = 10
Procedure: SD rats (male, 220 to 230 g) were anaesthetized by intraperitoneal injection of a urethane solution at a dosage of 1200 mg/kg. The anaesthetized rats were fixed in a supine position, and the right common carotid artery was dissected, clamped at the proximal end with an arterial clip, and penetrated with a suture at the proximal and distal ends, respectively. The suture at the distal end is clipped tightly by a hemostatic clamp at the fur. Cannulation was performed at the distal end, the arterial clamp was removed, and about 1 ml arterial blood was discharged into a 1 ml eppendorf. 0.1 ml rat arterial blood was injected into a vertically fixed glass tube (15 mm in length, with an inner diameter of 2.5 mm and an outer diameter of 5.0 mm, sealed with a rubber stopper at the bottom), into which was immediately inserted a thrombus immobilization screw made of stainless steel. […] 15 min after the blood was coagulated, the rubber stopper at the bottom of the glass tube was removed, the stem of the thrombus immobilization screw was nipped by forceps, and the thrombus-wrapped thrombus immobilization screw was carefully taken out of the glass tube and then accurately weighed.
A bypass cannula was composed of 3 segments. The middle segment was a polyethylene tubing having a length of 60.0 mm and an inner diameter of 3.5 mm. The segments on both ends were similar polyethylene tubes having a length of 100.0 mm, an inner diameter of 1.0 mm and an outer diameter of 2.0 mm, one end of which was pulled to form a tip, with an outer diameter of 1.0 mm, that could be inserted into the rat carotid artery or vein, and the other end of which was sheathed by a polyethylene tube having a length of 7.0 mm and an outer diameter of 3.5 mm (thickened in order to be inserted into the polyethylene tubing of the middle segment). The inner wall of the 3-segment cannula was entirely silylated (with 1% silicone oil in ethyl ether). The thrombus-wrapped thrombus immobilization screw was placed into the polyethylene tubing of the middle segment, and both ends of the tubing sheathed the thickened ends of the two polyethylene tubes. The cannula was filled with a heparin solution in normal saline (50 IU/kg) through the tip end by using an injector and was ready for use. The trachea of the anaesthetized rat was then dissected and tracheal cannulation was performed. The left external carotid vein of the rat was dissected, and penetrated with a suture at the proximal and distal ends, respectively. An uneven open incision was careful made on the exposed left external carotid vein, and the tip of the bypass cannula prepared as described above was inserted into the proximal end of the open incision in the left external carotid vein, away from the stem of the thrombus immobilization screw in the middle segment of the bypass cannula (which accommodated the accurately weighed thrombus immobilization screw). A precise amount of heparin in saline (50 IU/kg) was injected through the tip at the other end by using an injector. At this moment, without removing the injector from the ethylene tube, the tubing between the injector and the polyethylene tube was clamped with forceps. The blood flow was stopped by clamping the proximal end of the right common carotid artery with an arterial clip, and an uneven open incision was cut carefully across the common carotid artery near the clip. The injector was pulled out of the tip of the polyethylene tube, and the tip of the polyethylene tube was then inserted into the proximal end of the artery open incision. Both ends of the bypass cannula were fixed to the artery or vein with #4 sutures. […]

Compound | Percentage of infarction volume (Mean ± SD %) (rats with stroke [3]) | Weight reduction in thrombus (Mean ± SD mg) [5] | Weight reduction in thrombus (Mean ± SD mg) (thrombus [6]) | Wet weight of thrombus (Mean ± SD mg) (thrombus [4]; 10 μmol/kg by gavage) | further results
CC1(C)N([O])C(c2ccc(OCC(=O)O)cc2)=[N+]([O-])C1(C)C [TMMZ, 1,3-dioxo-2-(4′-oxyacetoxy-phenyl)-4,4,5,5-tetramethylimidazoline, reference compound] | 22.96 ± 2.43 ^a % | – | – | – | Percentage of inhibition (Mean ± SD %) of vasodilatation induced by acetylcholine [1]: 15.47%; Neural function scores (Mean ± SD) (rats with stroke [2]; n = 10): 2.83 ± 0.75 ^a
CC(=O)Oc1ccccc1C(=O)O [aspirin, reference compound] | – | – | – | – | Wet weight of thrombus (Mean ± SD mg) (thrombus [4]; aspirin 33 mg/kg by gavage): 12.85 ± 2.49 ^a mg
Ala-Arg-Pro-Ala-Lys (ARPAK) [ARPAK (SEQ. ID NO. 4), thrombolytic peptide, component control, reference compound] | 22.00 ± 2.20 ^a % | 26.35 ± 3.10 mg | 15.20 ± 2.55 mg | – | –
Arg-Gly-Asp-Phe (RGDF) [RGDF (SEQ. ID NO. 13), targeting peptide, reference compound] | – | – | – | 19.55 ± 2.21 mg | –
Arg-Gly-Asp-Ser (RGDS) [RGDS (SEQ. ID NO. 11), targeting peptide, reference compound] | – | – | – | 20.02 ± 2.35 mg | –
Arg-Gly-Asp-Val (RGDV) [RGDV (SEQ. ID NO. 12), targeting peptide, reference compound] | – | – | – | 21.26 ± 2.07 mg | –
Arg-Pro-Ala-Lys (RPAK) [RPAK (SEQ. ID NO. 3), thrombolytic peptide, component control, reference compound] | 22.11 ± 2.25 ^a % | 26.01 ± 3.11 mg | 15.67 ± 2.61 mg | – | Neural function scores (Mean ± SD) (rats with stroke [2]; n = 10): did not exhibit anti-stroke activity; Neural function scores (Mean ± SD) (rats with stroke [2]; n = 10, listed as RPAKI (SEQ. ID NO. 3)): 2.38 ± 0.97 ^a
Gly-Arg-Pro-Ala-Lys (GRPAK) [GRPAK (SEQ. ID NO. 5), thrombolytic peptide, component control, reference compound] | 21.77 ± 2.46 ^a % | 15.47 ± 2.61 mg | 15.47 ± 2.61 mg | – | –
Pro-Ala-Lys [PAK, reference compound] | 22.07 ± 2.40 ^a % | 26.67 ± 3.20 mg | 15.00 ± 2.61 mg | – | –
